Results taken from ChEMBL document CHEMBL5370585, “Exploration and Biological Evaluation of 1,3-Diamino-7H-pyrrol[3,2-f]quinazoline Derivatives as Dihydrofolate Reductase Inhibitors” (J Med Chem, 2023).
Converted amounts (≈) assume the structure as drawn. The source made the active and inactive calls. The calls are words filed in the database; no cut-off is given here.

Assays:
MCF7 = assay: Cytotoxicity against human MCF7 cells measured after 72 hrs by MTT assay; type: functional, cell-based; conditions: MCF7, 72 h
Enterococcus faecalis [1] = assay: Antibacterial activity against Enterococcus faecalis ATCC 29212 incubated for 16 to 18 hrs by CLSI based broth dilution method; type: functional; conditions: time 16-18 hrs
Staphylococcus aureus [2] = assay: Antibacterial activity against methicillin-resistant Staphylococcus aureus ATCC 43300 assessed as inhibition of bacterial growth at upto 8 times MIC measured upto 28 hrs by time kill curve assay; type: functional, organism-based
[3] = test system: Staphylococcus epidermidis; assay: Antibacterial activity against Staphylococcus epidermidis ATCC 12228 incubated for 16 to 18 hrs by CLSI based broth dilution method; type: functional; conditions: time 16-18 hrs
Staphylococcus aureus [4] = assay: Antibacterial activity against methicillin-resistant Staphylococcus aureus ATCC 43300 incubated for 16 to 18 hrs in absence of human plasma by CLSI based broth dilution method; type: functional; conditions: time 16-18 hrs
Escherichia coli [5] = assay: Antibacterial activity against Escherichia coli ATCC 25922 incubated for 16 to 18 hrs by CLSI based broth dilution method; type: functional; conditions: time 16-18 hrs
HepG2 = assay: Cytotoxicity against human HepG2 cells measured after 72 hrs by MTT assay; type: functional, cell-based; conditions: HepG2, 72 h
Staphylococcus aureus [6] = assay: Antibacterial activity against methicillin-resistant Staphylococcus aureus ATCC 43300 incubated for 16 to 18 hrs in presence of human plasma by CLSI based broth dilution method; type: functional; conditions: time 16-18 hrs
HCT-116 = assay: Cytotoxicity against human HCT-116 cells measured after 72 hrs by MTT assay; type: functional, cell-based; conditions: HCT-116, 72 h
Staphylococcus aureus [7] = assay: Drug resistance against methicillin-resistant Staphylococcus aureus ATCC 43300 assessed as increase in MIC measured after 10 passaging for 24 hrs; type: functional, organism-based
Staphylococcus aureus [8] = assay: Antibacterial activity against Staphylococcus aureus ATCC 29213 incubated for 16 to 18 hrs in presence of human plasma by CLSI based broth dilution method; type: functional; conditions: time 16-18 hrs
Escherichia coli [9] = assay: Antibacterial activity against Escherichia coli ATCC 25922 incubated for 16 to 18 hrs in presence of human plasma by CLSI based broth dilution method; type: functional; conditions: time 16-18 hrs
Staphylococcus aureus [10] = assay: Antibacterial activity against Staphylococcus aureus ATCC 29213 incubated for 16 to 18 hrs by CLSI based broth dilution method; type: functional; conditions: time 16-18 hrs
[11] = Toxicity in ip dosed ICR mouse assessed as animal death at high dose measured upto 8 days; type: organism-based; conditions: in vivo, 192 h, time < 8 day
Staphylococcus aureus [12] = assay: Antibacterial activity against Staphylococcus aureus ATCC 29213 incubated for 16 to 18 hrs in absence of human plasma by CLSI based broth dilution method; type: functional; conditions: time 16-18 hrs
Escherichia coli [13] = assay: Antibacterial activity against Escherichia coli ATCC 25922 incubated for 16 to 18 hrs in absence of human plasma by CLSI based broth dilution method; type: functional; conditions: time 16-18 hrs
HGC-27 = assay: Cytotoxicity against human HGC-27 cells measured after 72 hrs by MTT assay; type: functional, cell-based; conditions: HGC-27, 72 h
Staphylococcus aureus [14] = assay: Antibacterial activity against methicillin-resistant Staphylococcus aureus ATCC 43300 incubated for 16 to 18 hrs by CLSI based broth dilution method; type: functional; conditions: time 16-18 hrs
[15] = Toxicity in ICR mouse assessed as median lethal dose administered as single IP dose measured upto 8 days; conditions: in vivo, time < 8 day
Acinetobacter baumannii [16] = assay: Antibacterial activity against Acinetobacter baumannii ATCC 19606 incubated for 16 to 18 hrs by CLSI based broth dilution method; type: functional; conditions: time 16-18 hrs
Escherichia coli [17] = assay: Antibacterial activity against Escherichia coli ATCC 25922 assessed as inhibition of bacterial growth at upto 8 times MIC measured upto 28 hrs by time kill curve assay; type: functional, organism-based
Acinetobacter baumannii [18] = assay: Antibacterial activity against Acinetobacter baumannii 20-1 incubated for 16 to 18 hrs by CLSI based broth dilution method; type: functional; conditions: time 16-18 hrs
Klebsiella pneumoniae [19] = assay: Antibacterial activity against Klebsiella pneumoniae 15-1 assessed as reduction in microbial growth incubated for 16 to 18 hrs by CLSI based broth dilution method; type: functional; conditions: time 16-18 hrs
Pseudomonas aeruginosa = assay: Antibacterial activity against Pseudomonas aeruginosa ATCC 27853 incubated for 16 to 18 hrs by CLSI based broth dilution method; type: functional; conditions: time 16-18 hrs
Staphylococcus aureus [20] = assay: Antibacterial activity against methicillin-resistant Staphylococcus aureus ATCC 33591 incubated for 16 to 18 hrs by CLSI based broth dilution method; type: functional; conditions: time 16-18 hrs
Enterococcus = assay: Antibacterial activity against Vancomycin-resistant Enterococcus ATCC 51575 incubated for 16 to 18 hrs by CLSI based broth dilution method; type: functional; conditions: time 16-18 hrs
Acinetobacter baumannii [21] = assay: Antibacterial activity against Acinetobacter baumannii 20-2 incubated for 16 to 18 hrs by CLSI based broth dilution method; type: functional; conditions: time 16-18 hrs
Escherichia coli [22] = assay: Antibacterial activity against Escherichia coli ECO 15-1 incubated for 16 to 18 hrs by CLSI based broth dilution method; type: functional; conditions: time 16-18 hrs
Enterococcus faecalis [23] = assay: Antibacterial activity against Enterococcus faecalis EFA19-2 incubated for 16 to 18 hrs by CLSI based broth dilution method; type: functional; conditions: time 16-18 hrs
[24] = target: T1, Dihydrofolate reductase (Homo sapiens) (UniProt P00374); assay: Inhibition of human DHFR at 1 uM incubated for 10 mins in presence of NADPH by colorimetry based analysis relative to control
T1 sequence (whole entry): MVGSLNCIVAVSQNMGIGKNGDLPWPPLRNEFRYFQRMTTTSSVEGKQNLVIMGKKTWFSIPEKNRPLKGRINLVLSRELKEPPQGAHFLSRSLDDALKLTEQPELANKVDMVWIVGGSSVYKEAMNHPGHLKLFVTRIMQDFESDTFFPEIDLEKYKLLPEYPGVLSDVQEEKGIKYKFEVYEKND

Staphylococcus aureus [25] = assay: Antibacterial activity against vancomycin intermediate Staphylococcus aureus ATCC 700699 incubated for 16 to 18 hrs by CLSI based broth dilution method; type: functional; conditions: time 16-18 hrs
Klebsiella pneumoniae [26] = assay: Antibacterial activity against Klebsiella pneumoniae ATCC 700603 assessed as reduction in microbial growth incubated for 16 to 18 hrs by CLSI based broth dilution method; type: functional; conditions: time 16-18 hrs
Escherichia coli [27] = assay: Antibacterial activity against Escherichia coli ATCC BAA-2340 incubated for 16 to 18 hrs by CLSI based broth dilution method; type: functional; conditions: time 16-18 hrs
Staphylococcus aureus [28] = assay: Antibacterial activity against methicillin-sensitive Staphylococcus aureus ATCC 29213 incubated for 16 to 18 hrs by CLSI based broth dilution method; type: functional; conditions: time 16-18 hrs
Staphylococcus aureus [29] = assay: Antibacterial activity against methicillin-sensitive Staphylococcus aureus ATCC 25923 incubated for 16 to 18 hrs by CLSI based broth dilution method; type: functional; conditions: time 16-18 hrs
Enterococcus faecalis [30] = assay: Antibacterial activity against Enterococcus faecalis EFA19-1 incubated for 16 to 18 hrs by CLSI based broth dilution method; type: functional; conditions: time 16-18 hrs
Staphylococcus aureus [31] = assay: Antibacterial activity against methicillin-sensitive Staphylococcus aureus 15-2 incubated for 16 to 18 hrs by CLSI based broth dilution method; type: functional; conditions: time 16-18 hrs
Staphylococcus aureus [32] = assay: Antibacterial activity against methicillin-sensitive Staphylococcus aureus 15-1 incubated for 16 to 18 hrs by CLSI based broth dilution method; type: functional; conditions: time 16-18 hrs
Acinetobacter baumannii [33] = assay: Antibacterial activity against Acinetobacter baumannii ATCC 19606 assessed as reduction in microbial growth incubated for 16 to 18 hrs by CLSI based broth dilution method; type: functional; conditions: time 16-18 hrs
Staphylococcus aureus [34] = assay: Antibacterial activity against vancomycin intermediate Staphylococcus aureus ATCC 700788 incubated for 16 to 18 hrs by CLSI based broth dilution method; type: functional; conditions: time 16-18 hrs
Staphylococcus aureus [35] = assay: Antibacterial activity against Methicillin-resistant Staphylococcus aureus ATCC 43300 infected in ip dosed ICR mouse thigh infection model assessed as reduction in bacterial growth measured after 24 hrs post-treatment; type: functional, organism-based; conditions: dose lower 7.5 mg/kg, dose upper […]

Compound	IC50 (MCF7) [nM]	MIC (Enterococcus faecalis [1]) [µg/mL]	MIC [3] [µg/mL]	MIC (Staphylococcus aureus [4]) [µg/mL]	MIC (Escherichia coli [5]) [µg/mL]	IC50 (HepG2) [nM]	MIC (Staphylococcus aureus [6]) [µg/mL]	IC50 (HCT-116) [nM]	MIC (Staphylococcus aureus [8]) [µg/mL]	MIC (Escherichia coli [9]) [µg/mL]	MIC (Staphylococcus aureus [10]) [µg/mL]	MIC (Staphylococcus aureus [12]) [µg/mL]	MIC (Escherichia coli [13]) [µg/mL]	IC50 (HGC-27) [nM]	MIC (Staphylococcus aureus [14]) [µg/mL]	LD50 at 192 h [15] [mg/kg]	MIC (Acinetobacter baumannii [16]) [µg/mL]	MIC (Acinetobacter baumannii [18]) [µg/mL]	MIC (Klebsiella pneumoniae [19]) [µg/mL]	MIC (Pseudomonas aeruginosa) [µg/mL]	also measured
Nc1nc(N)c2c(ccc3c2ccn3Cc2cccc3scnc23)n1	110	≤ 0.004	≤ 0.004	≤ 0.004	0.03 (≈ 0.0866 µM)	170	0.25	32	0.25	0.25	0.008 (≈ 0.0231 µM)	0.008 (≈ 0.0231 µM)	0.03 (≈ 0.0866 µM)	11	0.004 (≈ 0.0115 µM)	88.9	0.5 (≈ 1.44 µM)				Activity (Staphylococcus aureus [2]): Active; Activity (Staphylococcus aureus [7]): Active; Activity [11]: Toxic; Activity (Escherichia coli [17]): Active
Nc1nc(N)c2c(ccc3c2ccn3Cc2cccc3cccnc23)n1	1450	0.06 (≈ 0.176 µM)	1 (≈ 2.94 µM)		0.5 (≈ 1.47 µM)	1220		> 10000			0.25 (≈ 0.734 µM)			1710	≤ 0.03		2 (≈ 5.88 µM)	64 (≈ 188 µM)	16	> 64	MIC (Staphylococcus aureus [20]): ≤ 0.03 µg/mL; MIC (Enterococcus): ≤ 0.03 µg/mL; MIC (Acinetobacter baumannii [21]): 2 µg/mL (≈ 5.88 µM); MIC (Escherichia coli [22]): > 64 µg/mL; MIC (Enterococcus faecalis [23]): ≤ 0.03 µg/mL; inhibition [24]: 38.7%; MIC (Staphylococcus aureus [25]): 0.06 µg/mL (≈ 0.176 µM); MIC (Klebsiella pneumoniae [26]): 16 µg/mL; MIC (Escherichia coli [27]): > 64 µg/mL; MIC (Staphylococcus aureus [28]): ≤ 0.03 µg/mL; MIC (Staphylococcus aureus [29]): ≤ 0.03 µg/mL; MIC (Enterococcus faecalis [30]): ≤ 0.03 µg/mL; MIC (Staphylococcus aureus [31]): ≤ 0.03 µg/mL; MIC (Staphylococcus aureus [32]): ≤ 0.03 µg/mL; MIC (Acinetobacter baumannii [33]): 2 µg/mL; MIC (Staphylococcus aureus [34]): ≤ 0.03 µg/mL
COc1cc(Cc2cnc(N)nc2N)cc(OC)c1OC [TRIMETHOPRIM]		0.5 (≈ 1.72 µM)	≤ 0.004	0.5 (≈ 1.72 µM)	0.5 (≈ 1.72 µM)		0.5		1	0.5	1 (≈ 3.44 µM)	1 (≈ 3.44 µM)	0.5 (≈ 1.72 µM)		0.5 (≈ 1.72 µM)	> 800	16 (≈ 55.1 µM)	> 64	8	> 64	Activity (Staphylococcus aureus [35]): Active; MIC (Staphylococcus aureus [20]): 1 µg/mL (≈ 3.44 µM); MIC (Enterococcus): ≤ 0.03 µg/mL; MIC (Acinetobacter baumannii [21]): 16 µg/mL (≈ 55.1 µM); MIC (Escherichia coli [22]): > 64 µg/mL; MIC (Enterococcus faecalis [23]): 0.5 µg/mL (≈ 1.72 µM); MIC (Staphylococcus aureus [25]): 1 µg/mL (≈ 3.44 µM); MIC (Klebsiella pneumoniae [26]): 4 µg/mL; MIC (Escherichia coli [27]): 64 µg/mL (≈ 220 µM); MIC (Staphylococcus aureus [28]): 1 µg/mL (≈ 3.44 µM); MIC (Staphylococcus aureus [29]): 1 µg/mL (≈ 3.44 µM); MIC (Enterococcus faecalis [30]): 0.25 µg/mL (≈ 0.861 µM); MIC (Staphylococcus aureus [31]): 0.25 µg/mL (≈ 0.861 µM); MIC (Staphylococcus aureus [32]): 0.5 µg/mL (≈ 1.72 µM); MIC (Acinetobacter baumannii [33]): 16 µg/mL; MIC (Staphylococcus aureus [34]): 0.5 µg/mL (≈ 1.72 µM)
